Data published in patent US12564206B2, “Multi-supplement food-additive” (THE GOVERNING COUNCIL OF THE UNIVERSITY OF TORONTO, priority 2019, dated 2026).
Where two headings read alike, the source gives them in different places.

Key:
[1] = Stability of spray solutions on storage; details: for retained in spray solution: after 2 months of storage
Experimental: Formulation and Storage of Spray Solution: Seven sets of spray solutions were formulated, containing folic acid, vitamin B12, iodine, sodium ascorbate, sodium citrate and/or sodium carbonate, as described in Table 1. The stability of the solutions was monitored for 2 months at 25, 35, and 45 degrees C.
(§1) Folic Acid Analysis: For the spray solution, samples were diluted with 0.1 M Na2CO3 at ratio 1:1000 v/v and the absorbance of the resulting solution was read at 285 nm. For the salt samples, 5 g aliquots were dissolved in 0.1 M Na2CO3 (10 mL) in a falcon tube. The solution was mixed on a vortex mixer for 2 minutes and filtered with a 0.45 μm syringe filter. The absorbance of the filtrate was immediately read at 285 nm.
(§2) Iodine Analysis: Method 33.149, described by the Association of Official Analytical Chemists (AOAC), was used for iodine quantification in salt and spray solutions (Association of Official Analytical Chemists, 1984). In this method, iodate is reduced to iodine and titrated with sodium thiosulfate using a starch indicator.
Vitamin B12 Analysis: The iron-B12 premix was pulverized with a mortar and pestle. The pulverized premix (5 g) was weighed into 50 mL falcon tube, and 10 mL of RO water was added and mixed with a vortex mixer for 2 minutes. This was centrifuged for 2 minutes. The supernatant was filtered with a 0.45 micron filter. Vitamin B12 in the filtrate was quantified using UHPLC-MS.

[2] = Stability of folic acid and iodine in fortified salt on storage; details: for micronutrient retained in quadruple fortified salt: 6 months storage at 25, 35 and 45 degrees C, 60-70% RH, all cases
Experimental: However, for comparative study, a solution containing folic acid, iodine and vitamin B12 (spray solution 2 in Table 1) was also used. The solutions (2.5 mL) were sprayed on salt (1 kg) inside a ribbon blender and thoroughly mixed for 20 minutes. The salt samples were dried overnight. The dried salt was returned to the ribbon blender and mixed with premix samples for 2 minutes. Iron premix (i.e. particles containing iron without any B12 or other fortificants) and three of the four iron-B12 premixes were used (adding B12 to TiO2 was not further tested). The target concentrations of the fortificants were 1000 microgram/gram iron, 50 microgram/gram iodine, 25 microgram/gram folic acid and 0.25 microgram/gram vitamin B12.
The fortified salts were divided by solid sample splitter glassware into three portions. Each portion was stored at ambient conditions (25 degrees C.), 35 degrees C. and 60-70% RH, and 45 degrees C. and 60-70% RH. The stability of folic acid and iodine in the salt was monitored over a period of six months.
as §1, §2

[3] = L*a*b* colour analysis of salt sprayed with folic acid; assay type: physicochemical
Experimental: While this example was successful, it was observed that the addition of folic acid by spraying can impact the colour of the salt (i.e. a yellow color is observed), which may impact the acceptance of the salt. Accordingly, the inclusion of the folic acid in the premix was evaluated. […] The two other premix samples contained an iron micronutrient, folic acid, and vitamin B12; in one of these two, all of the micronutrients were in the core of the premix, while in the other, folic acid was separated from the iron micronutrient and vitamin B12 by a layer of TiO2.

[4] = Accelerated kinetic study of folic acid and iodine degradation in spray solution; assay type: physicochemical; details: for degradation constant in spray solution: first order; for activation energy for degradation in the solution: Arrhenius plot
Experimental: An accelerated kinetic study was conducted to evaluate the stability of the micronutrients in the premixes and solution. The stability of folic acid and iodine in the spray solution was evaluated, and the stability of B12 in the various premixes was evaluated. The solution and premix were stored at 50, 60, 70 and 80 degrees C. for 7 days. For the solution, samples (250 mL) were stored in 400 mL Fisherbrand Glass Bottles. About 1 mL of the samples were collected from the bottles at days 1, 3, 5 and 7, and stored at −20 degrees C. before analysis. For the premix, 1 g was weighed into aluminium weighing dishes. At days 1, 3, 5 and 7, samples were pulverized in a mortar and pestle. Vitamin B12 was extracted with 0.1 M Na2CO3. The crude extract was filtered (0.45 um) and stored at −20 degrees C. before analysis.

[5] = Earlier double fortified salt, storage stability; assay type: physicochemical; details: 5 month period, ambient conditions
Source text: Applicant has previously attempted to develop folic acid and iodine spray solutions to investigate the stability of triple fortified salt containing iodine, folic acid and microencapsulated ferrous fumarate.

[6] = 30 min, 2 mg/mL
Experimental: The effect of boiling on the stability of folic acid and vitamin B12 was assessed, in order to mimic food preparation. A known amount of folic acid (0.5 g) was weighed into 250 ml of boiling water. Boiling was continued for 30 minutes. At 1, 5, 10, 15, 20, 25, and 30 minutes, the solution was made up to 250 ml, and then 1 ml of the solution was measured out into a centrifuge vial. The same procedure was followed for B12.

[7] = cited from earlier work
[8] = Stability of vitamin B12 in iron-B12 premix on storage; assay type: physicochemical; details: room temperature, six months; premix made by three approaches (core, spray, HPMC)
Source text: Production of Iron-B12 Premix: Given the instability of vitamin B12 in the spray solutions (as described below with respect to FIG. 4), vitamin B12 was removed from the spray solutions and incorporated into separate particles with the iron micronutrient, as a multi-supplement food-additive, described above (also referred to herein as an ‘iron-B12 premix’). For the iron-B12 premix, 25% TiO2 was used for color masking, and 5% HPMC and 5% soy stearin as the encapsulating coating. […] The stability of vitamin B12 in each iron-B12 premix was evaluated for six months.
This was centrifuged for 2 minutes.

[9] = 12.5 microgram/gram folic acid in salt
[10] = 25 microgram/gram folic acid in salt

stability in solution [1] | Compound | retained in spray solution [1] | micronutrient retained in quadruple fortified salt [2] | degradation constant in spray solution ([4]; 60 degrees C) [day⁻¹] | degradation constant in spray solution ([4]; 70 degrees C) [day⁻¹] | degradation constant in spray solution ([4]; 80 degrees C) [day⁻¹] | activation energy for degradation in the solution [4] [kcal/mol] | micronutrient retained in double fortified salt [5] [%] | solubility in water [7] | also measured
very stable | Nc1nc2ncc(CNc3ccc(C(=O)N[C@@H](CCC(=O)O)C(=O)O)cc3)nc2c(=O)[nH]1 [folic acid] | ~80% | 74-97% | 0.0349 | 0.0411 | 0.0531 | 4.924 | 100 | sparingly soluble | improvement of folic acid stability with vitamin B12 in core vs other parts of the premix ([2]; QFS, six months, all temperatures): 11-15%; L* of salt [3, 9]: 95.43; a* of salt [3, 9]: −1.53; b* of salt [3, 9]: 8.44; L* of salt [3, 10]: 94.27; a* of salt [3, 10]: −2.92; b* of salt [3, 10]: 13.50; retained after boiling [6]: About 93%
– | II [iodine, potassium iodate] | about 90% | 85-100% | 0.0337 | 0.0432 | 0.0568 | 6.092 | 100 | – | stability in solution ([1]; the spray solutions (FIG. 4)): very stable; improvement of iodine stability with vitamin B12 in core vs other parts of the premix ([2]; QFS, 45 degrees C, six months): 6-15%
very stable | vitamin B12 | – | – | – | – | – | – | – | very soluble | vitamin B12 lost in spray solution ([1]; spray solution at lower pH (8), 2 months storage): > 50%; vitamin B12 lost in spray solution ([1]; spray solution pH 9, 2 months storage at 45 degrees C and 70% RH): ~100%; B12 retained in iron-B12 premix [8]: over 97%
